Source: ChEMBL document CHEMBL4800722, “Data for DCP probe BI 605906” (2021)

Experiments:
[1] = molecular target: Serine/threonine-protein kinase 26 (Homo sapiens) (UniProt Q9P289); conditions: Compound concentration 1.0 uM
[2] = molecular target: PI3K p110 beta/p85 alpha (Homo sapiens) (UniProt P27986+P42338); experiment: PIK3CBPIK3RI Invitrogen Lab (UK) kinase screen (BI); assay type: protein-complex assay; conditions: Compound concentration 1.0 uM
[3] = molecular target: Protein-tyrosine kinase 6 (Homo sapiens) (UniProt Q13882); conditions: Compound concentration 1.0 uM
[4] = molecular target: Ribosomal protein S6 kinase alpha-5 (Homo sapiens) (UniProt O75582); experiment: MSK1 DUNDEE kinase screen (BI); conditions: Compound concentration 10.0 uM
[5] = molecular target: Death-associated protein kinase 3 (Homo sapiens) (UniProt O43293); conditions: Compound concentration 1.0 uM
[6] = molecular target: Ephrin type-B receptor 2 (Homo sapiens) (UniProt P29323); conditions: Compound concentration 1.0 uM
[7] = molecular target: Activin receptor type-1B (Homo sapiens) (UniProt P36896)
[8] = molecular target: Myosin-IIIa (Homo sapiens) (UniProt Q8NEV4); conditions: Compound concentration 1.0 uM
[9] = molecular target: Adrenergic receptor alpha-1 (Rattus norvegicus) (UniProt P15823+P23944+P43140)
[10] = molecular target: CDK2/Cyclin O (Homo sapiens) (UniProt P24941+P22674); experiment: CDK2/CYCLIN O Invitrogen Lab (UK) kinase screen (BI); assay type: protein-complex assay; conditions: Compound concentration 1.0 uM
[11] = molecular target: Serine/threonine-protein kinase PLK3 (Homo sapiens) (UniProt Q9H4B4); conditions: Compound concentration 1.0 uM
[12] = molecular target: Serine/threonine-protein kinase TAO3 (Homo sapiens) (UniProt Q9H2K8); conditions: Compound concentration 1.0 uM
[13] = molecular target: Mitogen-activated protein kinase 14 (Homo sapiens) (UniProt Q16539); experiment: SAPK2AP38 DUNDEE kinase screen (BI); conditions: Compound concentration 10.0 uM
[14] = molecular target: Dual specificity mitogen-activated protein kinase kinase 2 (Homo sapiens) (UniProt P36507); conditions: Compound concentration 1.0 uM
[15] = molecular target: Urotensin-2 receptor (Homo sapiens) (UniProt Q9UKP6); experiment: UROTENSIN_II Eurofins SafetyScreen44 (BI); conditions: Compound concentration 10.0 uM
[16] = molecular target: Phosphatidylinositol 3-kinase regulatory subunit beta/Phosphatidylinositol 4,5-bisphosphate 3-kinase catalytic subunit beta isoform (Homo sapiens) (UniProt P42338+O00459); experiment: PIK3CB/PIK3R2 Invitrogen Lab (UK) kinase screen (BI); assay type: protein-complex assay; conditions: Compound concentration 1.0 uM
[17] = molecular target: Cyclin-dependent kinase 9 (Homo sapiens) (UniProt P50750); conditions: Compound concentration 1.0 uM
[18] = molecular target: Insulin receptor (Homo sapiens) (UniProt P06213)
[19] = molecular target: Adenosine receptor A1 (Homo sapiens) (UniProt P30542); experiment: A1/HU Eurofins SafetyScreen44 (BI); conditions: Compound concentration 100.0 uM
[20] = molecular target: Polyunsaturated fatty acid lipoxygenase ALOX12 (Homo sapiens) (UniProt P18054); conditions: Compound concentration 10.0 uM
[21] = molecular target: Neutrophil elastase (Homo sapiens) (UniProt P08246); conditions: Compound concentration 10.0 uM
[22] = molecular target: D(1B) dopamine receptor (Homo sapiens) (UniProt P21918); conditions: Compound concentration 10.0 uM
[23] = molecular target: Serine/threonine-protein kinase N1 (Homo sapiens) (UniProt Q16512); conditions: Compound concentration 1.0 uM
[24] = molecular target: Serine/threonine-protein kinase SIK2 (Homo sapiens) (UniProt Q9H0K1); experiment: SNF1LK2 Invitrogen Lab (UK) kinase screen (BI); conditions: Compound concentration 1.0 uM
[25] = molecular target: Phosphatidylinositol 4,5-bisphosphate 3-kinase catalytic subunit gamma isoform (Homo sapiens) (UniProt P48736); experiment: PIK3CG Invitrogen Lab (UK) kinase screen (BI); conditions: Compound concentration 1.0 uM
[26] = molecular target: AP2-associated protein kinase 1 (Homo sapiens, UniProt Q2M2I8); experiment: NanoBRET (SGC-FFM) (AAK1)
[27] = molecular target: Serine/threonine-protein kinase Nek7 (Homo sapiens) (UniProt Q8TDX7); experiment: NEK7 DUNDEE kinase screen (BI); conditions: Compound concentration 10.0 uM
[28] = molecular target: Dual specificity tyrosine-phosphorylation-regulated kinase 1A (Homo sapiens) (UniProt Q13627); conditions: Compound concentration 1.0 uM
[29] = molecular target: MAP kinase-activated protein kinase 2 (Homo sapiens) (UniProt P49137)
[30] = molecular target: MAP kinase-activated protein kinase 5 (Homo sapiens) (UniProt Q8IW41); experiment: PRAK DUNDEE kinase screen (BI); conditions: Compound concentration 10.0 uM
[31] = molecular target: Serine/threonine-protein kinase pim-2 (Homo sapiens) (UniProt Q9P1W9); conditions: Compound concentration 1.0 uM
[32] = molecular target: Protein kinase C eta type (Homo sapiens) (UniProt P24723); conditions: Compound concentration 1.0 uM
[33] = molecular target: Cyclin-dependent kinase 5/CDK5 activator 1 (Homo sapiens) (UniProt Q00535+Q15078); conditions: Compound concentration 1.0 uM
[34] = molecular target: Protein kinase C alpha type (Homo sapiens) (UniProt P17252); experiment: PKCA DUNDEE kinase screen (BI); conditions: Compound concentration 10.0 uM
[35] = molecular target: PAS domain-containing serine/threonine-protein kinase (Homo sapiens) (UniProt Q96RG2); experiment: PASK Invitrogen Lab (UK) kinase screen (BI); conditions: Compound concentration 1.0 uM
[36] = molecular target: Serine/threonine-protein kinase Nek6 (Homo sapiens) (UniProt Q9HC98); experiment: NEK6 DUNDEE kinase screen (BI); conditions: Compound concentration 10.0 uM
[37] = molecular target: 5-hydroxytryptamine receptor 4 (Cavia porcellus) (UniProt O70528); conditions: Compound concentration 10.0 uM
[38] = molecular target: MAP/microtubule affinity-regulating kinase 3 (Homo sapiens) (UniProt P27448); conditions: Compound concentration 1.0 uM
[39] = molecular target: Serine/threonine-protein kinase haspin (Homo sapiens) (UniProt Q8TF76); experiment: GSG2 Invitrogen Lab (UK) kinase screen (BI); conditions: Compound concentration 1.0 uM
[40] = molecular target: Serine/threonine-protein kinase BRSK1 (Homo sapiens) (UniProt Q8TDC3); conditions: Compound concentration 1.0 uM
[41] = molecular target: SRSF protein kinase 1 (Homo sapiens) (UniProt Q96SB4); experiment: SRPK1 DUNDEE kinase screen (BI); conditions: Compound concentration 10.0 uM
[42] = molecular target: Serine/threonine-protein kinase N2 (Homo sapiens) (UniProt Q16513); experiment: PRK2 DUNDEE kinase screen (BI); conditions: Compound concentration 10.0 uM
[43] = molecular target: Histamine H1 receptor (Homo sapiens) (UniProt P35367); conditions: Compound concentration 10.0 uM

Sequence of Insulin receptor (Homo sapiens) (P06213 28-758 limits assumed): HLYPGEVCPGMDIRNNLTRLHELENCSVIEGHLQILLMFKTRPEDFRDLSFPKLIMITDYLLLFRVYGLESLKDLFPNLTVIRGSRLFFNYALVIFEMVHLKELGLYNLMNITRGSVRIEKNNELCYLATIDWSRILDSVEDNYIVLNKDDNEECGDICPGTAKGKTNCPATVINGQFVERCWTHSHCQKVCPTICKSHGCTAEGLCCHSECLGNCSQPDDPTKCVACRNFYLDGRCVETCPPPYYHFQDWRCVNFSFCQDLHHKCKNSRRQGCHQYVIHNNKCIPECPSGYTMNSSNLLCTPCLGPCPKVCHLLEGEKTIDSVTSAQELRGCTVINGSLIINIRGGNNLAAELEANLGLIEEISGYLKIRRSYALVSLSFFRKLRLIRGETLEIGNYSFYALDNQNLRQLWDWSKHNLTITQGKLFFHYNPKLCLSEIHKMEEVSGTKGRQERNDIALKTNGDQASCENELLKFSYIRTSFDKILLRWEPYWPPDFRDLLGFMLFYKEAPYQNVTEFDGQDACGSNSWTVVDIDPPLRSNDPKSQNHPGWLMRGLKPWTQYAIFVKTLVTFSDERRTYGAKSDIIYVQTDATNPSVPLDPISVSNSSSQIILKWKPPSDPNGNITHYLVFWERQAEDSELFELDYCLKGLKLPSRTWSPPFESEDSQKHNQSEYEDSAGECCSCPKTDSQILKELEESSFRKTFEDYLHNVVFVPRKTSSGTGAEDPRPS
Sequence of Insulin receptor (Homo sapiens) (P06213 763-1382 limits assumed): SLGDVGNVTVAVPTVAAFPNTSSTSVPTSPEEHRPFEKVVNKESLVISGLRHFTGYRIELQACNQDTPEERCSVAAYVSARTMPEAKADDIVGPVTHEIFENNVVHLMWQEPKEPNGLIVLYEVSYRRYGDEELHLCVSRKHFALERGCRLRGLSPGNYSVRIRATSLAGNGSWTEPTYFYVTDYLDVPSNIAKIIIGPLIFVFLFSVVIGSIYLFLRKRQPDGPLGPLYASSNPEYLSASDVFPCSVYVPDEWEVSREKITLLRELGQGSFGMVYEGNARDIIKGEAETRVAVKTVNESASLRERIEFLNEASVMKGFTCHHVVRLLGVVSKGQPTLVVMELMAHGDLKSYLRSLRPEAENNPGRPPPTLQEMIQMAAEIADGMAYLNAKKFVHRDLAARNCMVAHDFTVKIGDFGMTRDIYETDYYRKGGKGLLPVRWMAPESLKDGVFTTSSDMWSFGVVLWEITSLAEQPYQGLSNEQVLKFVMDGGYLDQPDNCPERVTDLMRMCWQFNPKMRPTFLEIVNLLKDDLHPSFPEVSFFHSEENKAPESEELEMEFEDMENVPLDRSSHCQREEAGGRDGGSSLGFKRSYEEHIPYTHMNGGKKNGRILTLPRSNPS
Sequence of Activin receptor type-1B (Homo sapiens) (P36896 whole entry): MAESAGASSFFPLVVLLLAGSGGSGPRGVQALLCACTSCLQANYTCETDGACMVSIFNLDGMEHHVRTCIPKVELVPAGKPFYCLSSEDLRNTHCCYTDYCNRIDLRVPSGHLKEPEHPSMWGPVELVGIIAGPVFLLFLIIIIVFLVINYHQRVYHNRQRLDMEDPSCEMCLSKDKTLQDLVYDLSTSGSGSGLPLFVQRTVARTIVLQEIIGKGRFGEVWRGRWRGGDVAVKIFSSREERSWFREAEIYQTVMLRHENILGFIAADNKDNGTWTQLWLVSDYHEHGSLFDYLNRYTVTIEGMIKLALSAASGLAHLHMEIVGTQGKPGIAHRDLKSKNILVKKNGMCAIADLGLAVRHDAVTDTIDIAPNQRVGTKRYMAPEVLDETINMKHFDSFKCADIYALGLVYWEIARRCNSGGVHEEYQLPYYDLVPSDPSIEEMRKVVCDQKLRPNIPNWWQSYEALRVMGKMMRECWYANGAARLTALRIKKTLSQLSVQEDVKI
Sequence of MAP kinase-activated protein kinase 2 (Homo sapiens) (P49137 whole entry, looked up): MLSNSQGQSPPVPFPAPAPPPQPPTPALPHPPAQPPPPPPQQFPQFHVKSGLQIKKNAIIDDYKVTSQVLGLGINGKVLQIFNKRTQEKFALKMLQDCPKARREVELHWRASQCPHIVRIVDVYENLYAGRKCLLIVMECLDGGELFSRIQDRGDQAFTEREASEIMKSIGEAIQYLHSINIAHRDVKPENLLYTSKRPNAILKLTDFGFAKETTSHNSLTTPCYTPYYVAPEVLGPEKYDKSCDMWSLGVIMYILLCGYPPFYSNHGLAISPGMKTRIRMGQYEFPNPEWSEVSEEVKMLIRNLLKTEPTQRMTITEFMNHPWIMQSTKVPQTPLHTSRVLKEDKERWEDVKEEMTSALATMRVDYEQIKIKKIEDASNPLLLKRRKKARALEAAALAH
Sequence of PAS domain-containing serine/threonine-protein kinase (Homo sapiens) (Q96RG2 whole entry, the tested form may be a part): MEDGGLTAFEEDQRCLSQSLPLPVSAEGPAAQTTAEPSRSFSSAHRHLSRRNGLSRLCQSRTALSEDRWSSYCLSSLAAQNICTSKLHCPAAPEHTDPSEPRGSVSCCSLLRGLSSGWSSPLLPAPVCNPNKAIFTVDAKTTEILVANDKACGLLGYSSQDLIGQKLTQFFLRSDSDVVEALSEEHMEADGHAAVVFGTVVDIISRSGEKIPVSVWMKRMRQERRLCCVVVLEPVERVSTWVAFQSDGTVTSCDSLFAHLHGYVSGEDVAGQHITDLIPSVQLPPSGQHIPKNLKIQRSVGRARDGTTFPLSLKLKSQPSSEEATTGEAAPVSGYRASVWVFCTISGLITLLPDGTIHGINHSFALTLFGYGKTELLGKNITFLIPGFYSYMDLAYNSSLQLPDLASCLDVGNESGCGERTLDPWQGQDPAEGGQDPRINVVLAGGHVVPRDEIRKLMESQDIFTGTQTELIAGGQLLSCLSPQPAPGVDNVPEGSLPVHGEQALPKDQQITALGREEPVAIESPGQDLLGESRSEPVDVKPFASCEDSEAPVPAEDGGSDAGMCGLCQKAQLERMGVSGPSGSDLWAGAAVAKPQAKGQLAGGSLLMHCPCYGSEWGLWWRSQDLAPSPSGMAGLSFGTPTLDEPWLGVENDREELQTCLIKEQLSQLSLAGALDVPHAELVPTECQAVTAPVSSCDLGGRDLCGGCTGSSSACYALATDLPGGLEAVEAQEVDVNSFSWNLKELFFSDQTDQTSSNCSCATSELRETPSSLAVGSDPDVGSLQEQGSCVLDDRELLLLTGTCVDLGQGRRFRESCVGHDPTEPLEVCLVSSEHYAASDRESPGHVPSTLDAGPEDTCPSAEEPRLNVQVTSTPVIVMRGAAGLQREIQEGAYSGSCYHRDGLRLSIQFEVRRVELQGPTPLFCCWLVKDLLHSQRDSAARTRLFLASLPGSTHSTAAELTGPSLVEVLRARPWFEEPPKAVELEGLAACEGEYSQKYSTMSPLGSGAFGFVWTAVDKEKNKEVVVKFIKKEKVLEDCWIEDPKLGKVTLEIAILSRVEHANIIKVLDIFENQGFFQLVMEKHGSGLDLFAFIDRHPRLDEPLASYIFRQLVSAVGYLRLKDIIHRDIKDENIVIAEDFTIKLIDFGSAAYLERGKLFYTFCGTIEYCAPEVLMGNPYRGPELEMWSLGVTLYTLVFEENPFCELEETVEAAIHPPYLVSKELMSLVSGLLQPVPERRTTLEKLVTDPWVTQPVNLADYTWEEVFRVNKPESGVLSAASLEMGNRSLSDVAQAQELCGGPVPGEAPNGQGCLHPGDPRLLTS
Sequence of Ephrin type-B receptor 2 (Homo sapiens) (P29323 whole entry): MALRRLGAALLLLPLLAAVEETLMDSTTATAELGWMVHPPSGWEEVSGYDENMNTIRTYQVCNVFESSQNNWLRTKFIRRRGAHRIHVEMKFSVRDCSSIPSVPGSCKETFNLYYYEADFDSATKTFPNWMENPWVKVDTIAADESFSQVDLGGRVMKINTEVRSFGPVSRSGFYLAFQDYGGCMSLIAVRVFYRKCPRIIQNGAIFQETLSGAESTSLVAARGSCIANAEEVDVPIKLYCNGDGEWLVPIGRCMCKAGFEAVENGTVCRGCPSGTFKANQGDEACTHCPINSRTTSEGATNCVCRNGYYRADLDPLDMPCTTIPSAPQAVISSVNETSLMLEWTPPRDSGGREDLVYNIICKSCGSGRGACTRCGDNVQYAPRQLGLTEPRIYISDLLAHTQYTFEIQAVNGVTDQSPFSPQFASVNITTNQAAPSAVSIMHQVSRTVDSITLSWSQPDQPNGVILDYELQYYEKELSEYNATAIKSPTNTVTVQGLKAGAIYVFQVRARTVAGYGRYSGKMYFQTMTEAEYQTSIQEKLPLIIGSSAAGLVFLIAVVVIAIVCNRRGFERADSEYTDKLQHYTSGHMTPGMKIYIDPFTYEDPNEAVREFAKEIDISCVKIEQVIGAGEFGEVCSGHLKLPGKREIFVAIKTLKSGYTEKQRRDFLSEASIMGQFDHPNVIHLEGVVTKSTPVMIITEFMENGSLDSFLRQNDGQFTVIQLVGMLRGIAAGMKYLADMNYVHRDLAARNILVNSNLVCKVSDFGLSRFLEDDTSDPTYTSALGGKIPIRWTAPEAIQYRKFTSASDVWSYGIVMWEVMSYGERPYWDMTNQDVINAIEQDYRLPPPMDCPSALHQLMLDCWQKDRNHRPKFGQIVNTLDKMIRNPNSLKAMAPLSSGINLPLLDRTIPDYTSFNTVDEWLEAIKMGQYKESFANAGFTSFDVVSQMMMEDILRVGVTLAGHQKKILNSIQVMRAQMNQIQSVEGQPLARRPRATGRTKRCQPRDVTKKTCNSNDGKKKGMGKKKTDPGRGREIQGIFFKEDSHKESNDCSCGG
Sequence of Mitogen-activated protein kinase 14 (Homo sapiens) (Q16539 whole entry): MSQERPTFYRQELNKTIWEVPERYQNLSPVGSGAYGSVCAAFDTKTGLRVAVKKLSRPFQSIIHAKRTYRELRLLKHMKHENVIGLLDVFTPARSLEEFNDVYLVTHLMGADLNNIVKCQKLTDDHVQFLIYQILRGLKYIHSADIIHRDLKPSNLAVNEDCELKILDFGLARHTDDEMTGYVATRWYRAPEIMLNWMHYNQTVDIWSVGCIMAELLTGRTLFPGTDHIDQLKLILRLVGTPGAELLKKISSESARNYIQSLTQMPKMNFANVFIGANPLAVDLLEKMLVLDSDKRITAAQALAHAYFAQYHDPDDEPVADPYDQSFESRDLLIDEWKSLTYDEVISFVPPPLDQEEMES

CCC(F)(F)c1cc(N2CCC(S(C)(=O)=O)CC2)nc2sc(C(N)=O)c(N)c12 [BI-605906]
residual activity [1]: 109%
residual activity [2]: 124%
residual activity [3]: 98%
residual activity [4]: 86.6%
residual activity [5]: 101%
residual activity [6]: 89%
residual activity ([7]; Compound concentration 1.0 uM): 96%
residual activity ([7]; Compound concentration 10.0 uM): 105%
residual activity [8]: 92%
residual activity ([9]; Compound concentration 10.0 uM): 109%
residual activity ([9]; Compound concentration 100.0 uM): 93%
residual activity [10]: 81%
residual activity [11]: 93%
residual activity [12]: 93%
residual activity [13]: 85.3%
residual activity [14]: 91%
residual activity [15]: 107%
residual activity [16]: 112%
residual activity [17]: 91%
residual activity ([18]; Compound concentration 1.0 uM): 94%
residual activity ([18]; Compound concentration 10.0 uM): 93%
residual activity [19]: 77%
residual activity [20]: 96%
residual activity [21]: 98%
inhibition [22]: 2.13%
residual activity [23]: 87%
residual activity [24]: 84%
residual activity [25]: 102%
IC50 [26]: 7 µM (not active)
residual activity [27]: 104%
residual activity [28]: 91%
residual activity ([29]; Compound concentration 1.0 uM): 93%
residual activity ([29]; Compound concentration 10.0 uM): 87%
residual activity [30]: 61.1%
residual activity [31]: 99%
residual activity [32]: 100%
residual activity [33]: 97%
residual activity [34]: 66.9%
residual activity [35]: 106%
residual activity [36]: 83.3%
residual activity [37]: 98%
residual activity [38]: 90%
residual activity [39]: 70%
residual activity [40]: 92%
residual activity [41]: 73.3%
residual activity [42]: 46.4%
inhibition [43]: 9.22%
